Assay results taken from patent US8815590B2, “Composition and method for differentiation of human embryonic stem cells” (Stem Cells for Safer Medicines Limited, priority 2009, dated 2014).

Legend:
[1] = system: ESCs [SHEF1]; assay: Immunofluorescence of endoderm markers FoxA2 and HNF4α, percent positive cells; format: cell-based, human; conditions: 5 days
Experimental: (§1) (A) RNA was extracted from ESCs [SHEF1] cultured for 7 days in the presence of 2 μM 1M for the days indicated. RT-PCR analyses were performed using primers selective for the genes indicated. (B) ESCs [SHEF1] were treated with 2 μM 1M alone or in combination with 10 μM SB43125 (S) for the days indicated and RT-PCR performed on the extracted RNA. (C) ESCs [SHEF3] were treated with 1M alone or in combination with 100 ng/ml Activin A (A) for the days indicated and RT-PCR performed. (D). ESCs [SHEF1] were treated with 2 μM 1M, or 100 ng/ml ActivinA (A) alone or in combination with 1M for 5 days. Expression of the endoderm markers FoxA2 and HNF4α was analysed by immunofluorescence. The number of percent positive cells averaged from 3 fields of view +/−SD are indicated. Scale bar represents 50 μm. (E) ESCs [SHEF1] were treated with 2 μM 1M, or 100 ng/ml ActivinA (A) alone or in combination with 1M for 5 days. Expression of the DE marker CXCR4 was alaysed by flow cytometry.
ESCs were cultured on Matrigel®-coated lummox (Greiner Bio One) trays and fixed with 4% paraformaldehyde (PFA) for 20 minutes at room temperature. Cells were permeabilised in PBST (with 0.1% Triton X-100) and blocked in 10% blocking reagent (Roche) before incubating with primary antibodies in 2% blocking reagent overnight at 4° C. After washing in PBS, cells were incubated with FITC-conjugated secondary antibodies (Vector Labs) for 3 hours at room temperature. After further washing, the cells were stained with 4,6-diamidino-2-phenylindole (DAPI) (SIGMA), washed again and mounted in MOWIOL. The following antibodies and dilutions were used: goat-anti-FoxA2 (1:100, R&D. Systems), mouse anti-Sox17 (1:50, R&D Systems), rabbit anti-HNF4α (1:100, Santa Cruz), rabbit anti-AFP (1:100, DAKO), rabbit anti-TTR (1:100, DAKO). Images were captured on a Zeiss 510 Meta confocal microscope using a 40× objective.

[2] = system: Human ESCs [SHEF3]; assay: Colony morphology, RT-PCR and Western blot of OCT4/NANOG in treated human ESCs; format: cell-based
Experimental: Human ESCs [SHEF3] were treated with the indicated concentrations of BIO or compound 1M or left untreated as a control and cultured for 7 days. (A) Images show typical colonies formed following the indicated treatments. The scale bars represent 1 mm. (B) Histogram plots of ESCs analysed by flow cytometry following immunostaining with antibodies against the pluripotency markers Tra-1-60 or SSEA4. (C) RNA was extracted from the cells and RT-PCR analyses performed using primers specific to the pluripotency genes OCT4 and NANOG and to the house-keeping gene β-ACTIN. (D) Western blot analysis was performed on protein extracted from the cells and immunoblotted with antibodies specific to Oct4. Blots were stripped and reprobed with anti-Gapdh antibodies to assess equal loading. (E) Compound 1O also induces differentiation of human ESCs. SHEF3 cells were treated with the indicated concentration of 1O for 7 days. Images show typical colony morphology. (F) Histogram plots of ESCs analysed by flow cytometry following staining with Tra-1-60 and SSEA4 antibodies. Analysis of percent positive cells and mean fluorescent intensity are indicated on the plots. (G) RT PCR analysis for the expression of OCT4 and NANOG. Bands for each of the genes were from the same gel with intervening samples removed. (H) Western blot analysis of OCT4 protein expression. Proteins bands were from the same immunoblot with intervening samples removed.
SHEF1 and SHEF3 human ESCs were obtained from the UKSCB and cultured as outlined in their protocols. Briefly, ESCs were maintained on mitomycin C-inactivated mouse embryonic fibroblast (MEF) feeder layers in KnockOut Dulbecco's modified Eagle's medium (KO DMEM) (Invitrogen) supplemented with 20% (vol/vol) KO serum replacement (KOSR; Invitrogen), 1 mM non-essential amino acids (NEAA; Invitrogen), 1 mM glutamine (Invitrogen), 0.1 mM 2-mercaptoethanol (BioRad), penicillin/streptomycin, and 4 ng/ml recombinant human FGF2 (Peprotech). Cultures were passage using 1 mg/ml collagenase at a ratio of 1:8 to 1:12 every 7 days. Cultures were transferred to a feeder-free, chemically defined culture system on ESC-qualified Matrigel® (BD) coated plates in mTeSR1® (Stem Cell Technologies) media according to Stem Cell Technologies' protocol.
(§2) Total RNA was isolated and purified using TRIzol Reagent (Invitrogen), following the manufacturer's instructions. All RNA samples were treated with DNase I (Ambion) before cDNA synthesis to eliminate any contaminating genomic DNA. RNA (1 μg) was reverse transcribed into cDNA using Oligo(dT)15 (Promega) and SuperScript II (Invitrogen). Gene-specific PCR was carried out using primers and annealing temperatures outlined in Table 2.
Cell lysates (20 μg) were prepared, separated by SDS-PAGE and transferred to nitrocellulose as described previously (Welham et al., 1994). Immunoblotting was carried out using primary antibodies at the following dilutions: 1:5,000 anti-Oct4 (Santa Cruz Biotechnology; sc-9081); 1:2000 anti-GAPDH (sc-20357); 1:10,000 anti-phospho (Ser33/37/Thr41) β-catenin (Cell signalling Technology; CST 9561); 1:1000 anti-β-catenin (CST 9562). Anti-rabbit antibodies conjugated to horseradish peroxidise (DAKO) were used at 1:10,000 and blots were developed using ECL Advance (GE Healthcare) or ChemiGlow (Alpha Innotech) according to manufacturer's directions. Images were captured and analysed using the ImageQuant RT ECL system (GE Healthcare). Blots were stripped and reprobed as described previously (Welham et al., 1994).

[3] = system: ESCs [SHEF1]; assay: RT-PCR of Activin/Nodal pathway and differentiation marker genes; format: cell-based, human; conditions: 2 μM, after 1 day, maintained up to 3 days, basal by day 7
Experimental: as §1, §2

O=C1NC(=O)C2=C1c1cn(c3ccccc13)CCOCCOCCOCCOCCn1cc2c2ccccc21 [1M]
FOXA2 expressing cells in the entire population ([1]; 2 μM 1M or 100 ng/ml Activin A): 35-40%
HNF4α-expressing cells ([1]; 2 μM 1M or 100 ng/ml Activin A): 20%
FoxA2 positive cells in clusters of cells ([1]; 2 μM, within clusters): 73%
OCT4 and NANOG gene expression (RT-PCR) ([2]; 7 days treatment): loss of the pluripotency markers OCT4 and NANOG
Oct4 protein expression (Western blot) ([2]; 7 days treatment): loss of Oct4 protein expression
Proliferation and differentiation of human ESCs (colony morphology) ([2]; 7 days, on MEFs in KO DMEM or on Matrigel in mTeSR1, 1M at 2 μM): dramatic increase in proliferation and differentiation
NODAL gene expression [3]: increase in NODAL gene expression
